Series [1] addresses human GPR40 receptor (Homo sapiens (Human), UniProt O14842). In words: IP1 accumulation measurements using the IPOne assay system. The class given is cell-based. The settings on record: 1321N1 cells stably expressing human GPR40, 1 h stimulation. The procedure:
IP1 accumulation measurements using the IPOne assay system—1321N1 cells stably expressing human GPR40 receptor (Euroscreen, Belgium) are seeded 24 h before the assay in white 384-well plates in culture medium containing 10% FCS, 1% Na-Pyruvate and 400 μg/mL G418. IP1 is assayed according to the manufacturer's description (Cisbio Bioassays, France). In brief, the assay is started by substitution of the culture medium by stimulation buffer (Hepes 10 mM, CaCl2) 1 mM, MgCl2 0.5 mM, KCl 4.2 mM, NaCl 146 mM, glucose 5.5 mM and LiCl 50 mM, pH 7.4). Cells are stimulated for 1 h at 37° C., 5% CO2 by addition of the compounds that are diluted in stimulation buffer containing LiCl. Assays are stopped by adding HTRF-conjugates (IP1-d2 and Anti-IP1 cryptate Tb) and lysis buffer, provided by the manufacturer. After an incubation time of 1 h at room temperature plates are measured using an EnVision™, Perkin Elmer. The obtained fluorescence ratios at 665/615 […] are then used to calculate the pEC50 values using Assay Explorer 3.3 Software (Accelrys, Inc.) by interpolation using an IP1 reference curve and subsequent sigmoidal curve fitting allowing for a variable hill slope.

Series [2] addresses cytochrome P450 2C9-isoenzyme (Homo sapiens (Human), UniProt P11712). In words: Inhibition of CYP-2C9 (diclofenac hydroxylation, human liver microsomes). Format: in vitro ADME. The following applies: diclofenac 10 μM, 37° C. How it is done:
All assays are carried out on a robotic system in 96 well plates. The final incubation volume contains TRIS buffer (0.1 M), MgCl2 (5 mM), human liver microsomes (0.1 mg/mL), diclofenac (10 μM) and the test compound at five different concentrations or no compound (high control) in duplicate (e.g., highest concentration 10-50 μM with subsequent serial 1:4 dilutions). Following a short preincubation period, reactions are started with the cofactor (NADPH, 1 mM) and stopped by cooling the incubation down to 8° C. and subsequently by addition of one volume of acetonitrile. An internal standard solution—the stable isotope ^13C6-hydroxydiclofenac—is added after quenching of incubations. Peak area analyte (=metabolite formed) and internal standard is determined by LC-MS/MS. The resulting peak area ratio analyte to internal standard in these incubations is compared to a control activity containing no test compound. Within each of the assay runs, the IC50 of a positive control inhibitor (sulfaphenazole) is determined. Experimental IC50 values are calculated by least square regression according to the following equation: % control activity=(100% control activity/(1+(I/IC50)S))−B with I=inhibitor concentration; S=slope factor; B=background activity (lower plateau of the inhibition curve) […]
A general note: Liver microsomes are a subcellular fraction often used to study metabolism.

The target in series [3] is cytochrome P450 2C8-isoenzyme (Homo sapiens (Human), UniProt P10632). In words: Inhibition of CYP-2C8 (amodiaquine deethylation, human liver microsomes). Format: in vitro ADME. The following applies: amodiaquine 1 μM, 37° C. How it is done:
All assays are carried out on a robotic system in 96 well plates. The final incubation volume contains TRIS buffer (0.1 M), MgCl2 (5 mM), human liver microsomes (0.05 mg/mL), amodiaquine (1 μM) and the test compound at five different concentrations or no compound (high control) in duplicate (e.g. highest concentration 10-50 μM with subsequent serial 1:4 dilutions). Following a short preincubation period, reactions are started with the cofactor (NADPH, 1 mM) and stopped by cooling the incubation down to 8° C. and subsequently by addition of one volume of acetonitrile. An internal standard solution—the stable isotope d5-desethylamodiaquine—is added after quenching of incubations. Peak area analyte (=metabolite formed) and internal standard is determined by LC-MS/MS. The resulting peak area ratio analyte to internal standard in these incubations is compared to a control activity containing no test compound. Within each of the assay runs, the IC50 of a positive control inhibitor (Montelukast) is determined. Experimental IC50 values are calculated by least square regression according to the following equation: % control activity=(100% control activity/(1+(I/IC50)S))−B with I=inhibitor concentration; S=slope factor; B=background activity (lower plateau of the inhibition curve)
If the inhibition of the reaction is already >50% at the lowest concentration of the test compound, the IC50 is assigned “<lowest concentration tested” (usually <0.4 μM). If the inhibition of the reaction is still <50% at the highest concentration of the test compound, the IC50 is assigned “> highest concentration tested” (usually >50 μM).

Series [4] can be described thus: Aqueous solubility. The class given is physicochemical. The following applies: aqueous buffer, kinetic from dmso stock, buffer pH 2.2, 24 h shaking, 2.5% DMSO. The procedure: The aqueous solubility of the compounds of the invention is determined by comparing the amount dissolved in buffer to the amount in an acetonitrile/water (1/1) solution. Starting from a 10 mM DMSO stock solution aliquots are diluted with acetonitrile/water (1/1) or buffer, respectively. After 24 h of shaking, the solutions are filtrated and analyzed by LC-UV. The amount dissolved in buffer is compared to the amount in the acetonitrile solution.
Solubility is usually being measured from 0.001 to 0.125 mg/mL at a DMSO concentration of 2.5%. If more than 90% of the compound is dissolved in buffer, the value is marked with “>”.

Converted amounts (≈) assume the structure as drawn.

From patent US10550127B1, “Indanylaminoazadihydrobenzofuranylacetic acids, pharmaceutical compositions for the treatment of diabetes” (Boehringer Ingelheim International GmbH, priority 2017, dated 2020) come the findings set out here.

What is called EC50 is the concentration that produces a half-maximal response. Read a high EC50 as weaker potency. As a reminder, the IC50 is the point on the concentration scale where inhibition reaches its midpoint. Low values mean greater potency, high ones weaker potency. What is called solubility is the concentration that dissolves in the medium under given conditions. High values mean much dissolved substance, low ones little dissolved substance.

cytochrome P450 2C8-isoenzyme, sequence (P10632 whole entry): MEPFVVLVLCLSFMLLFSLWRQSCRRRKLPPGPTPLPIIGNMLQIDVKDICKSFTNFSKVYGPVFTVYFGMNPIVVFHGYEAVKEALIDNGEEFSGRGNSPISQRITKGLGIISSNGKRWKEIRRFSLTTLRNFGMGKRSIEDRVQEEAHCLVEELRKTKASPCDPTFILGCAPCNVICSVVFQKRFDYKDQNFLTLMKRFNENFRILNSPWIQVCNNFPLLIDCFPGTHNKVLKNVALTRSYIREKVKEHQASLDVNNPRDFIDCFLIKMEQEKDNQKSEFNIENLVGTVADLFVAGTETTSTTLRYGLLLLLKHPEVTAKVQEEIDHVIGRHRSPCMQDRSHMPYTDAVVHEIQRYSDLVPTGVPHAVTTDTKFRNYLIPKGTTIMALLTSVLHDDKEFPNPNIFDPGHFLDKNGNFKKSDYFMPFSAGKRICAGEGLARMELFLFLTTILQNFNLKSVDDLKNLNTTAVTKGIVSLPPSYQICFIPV
cytochrome P450 2C9-isoenzyme, sequence (P11712 whole entry): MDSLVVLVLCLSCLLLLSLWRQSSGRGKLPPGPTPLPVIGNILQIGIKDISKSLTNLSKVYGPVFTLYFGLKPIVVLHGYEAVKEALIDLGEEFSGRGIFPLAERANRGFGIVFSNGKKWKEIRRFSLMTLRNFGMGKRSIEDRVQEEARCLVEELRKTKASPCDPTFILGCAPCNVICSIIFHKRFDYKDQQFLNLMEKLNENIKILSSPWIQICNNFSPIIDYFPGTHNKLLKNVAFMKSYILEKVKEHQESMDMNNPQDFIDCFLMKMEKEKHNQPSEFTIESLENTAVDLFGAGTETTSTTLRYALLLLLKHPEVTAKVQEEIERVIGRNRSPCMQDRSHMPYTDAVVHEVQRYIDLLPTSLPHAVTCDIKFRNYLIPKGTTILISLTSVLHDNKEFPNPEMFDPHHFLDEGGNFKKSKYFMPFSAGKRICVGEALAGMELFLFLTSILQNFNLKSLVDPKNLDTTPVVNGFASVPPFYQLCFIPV
human GPR40 receptor, sequence (O14842 whole entry): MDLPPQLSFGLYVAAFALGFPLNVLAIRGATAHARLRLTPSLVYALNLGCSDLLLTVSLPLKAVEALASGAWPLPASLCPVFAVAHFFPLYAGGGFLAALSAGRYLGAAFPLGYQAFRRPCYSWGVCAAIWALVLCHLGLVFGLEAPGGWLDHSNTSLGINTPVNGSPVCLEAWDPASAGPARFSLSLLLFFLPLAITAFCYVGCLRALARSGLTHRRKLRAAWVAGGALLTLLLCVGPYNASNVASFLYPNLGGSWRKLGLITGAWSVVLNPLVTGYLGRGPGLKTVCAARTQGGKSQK

`Cc1cc(OCCC(C)(C)O)cc(C)c1-c1ccc(F)c2c1CC[C@H]2Nc1cc2c(cn1)[C@H](CC(=O)O)CO2` [Example 1, ((S)-6-{(R)-7-Fluoro-4-[4-(3-hydroxy-3-methyl-butoxy)-2,6-dimethyl-phenyl]-indan-1-ylamino}-2,3-dihydro-furo[3,2-c]pyridin-3-yl)-acetic Acid]: in series [1], the EC50 is 0.015 µM. In addition, the IC50 was more than 50 µM in series [2] and 30 µM in series [3]. For the same compound, the solubility at 24 h in series [4] is more than 94 µg/mL.

Compound `Cc1cc(-c2nnn(C)n2)cc(C)c1-c1ccc(F)c2c1CC[C@H]2Nc1cc2c(cn1)[C@H](CC(=O)O)CO2` [Example 5, ((S)-6-{(R)-4-[2,6-Dimethyl-4-(2-methyl-2H-tetrazol-5-yl)-phenyl]-7-fluoro-indan-1-ylamino}-2,3-dihydro-furo[3,2-c]pyridin-3-yl)-acetic Acid] gave a half-maximal effective concentration (EC50) in series [1] of 0.006 µM. Besides, the figures for the half-maximal inhibitory concentration (IC50) in series [2] and in series [3] were more than 50 µM and 35 µM, respectively. For the same compound, the solubility at 24 h in series [4] was determined as 47 µg/mL (≈ 91.3 µM).

In turn, `Cc1cc(OCCC(C)(C)O)cc(C)c1-c1ccc(F)c2c1CC[C@H]2Oc1ccc2c(c1)OC[C@H]2CC(=O)O` [Example 16 in WO 2013/144098, reference compound] showed an IC50 in series [3] of 5 µM. In series [4], this compound gave a solubility at 24 h of less than 1 µg/mL.

As for `Cc1cc(-c2nnn(C)n2)cc(C)c1-c1ccc(F)c2c1CC[C@H]2Oc1ccc2c(c1)OC[C@H]2CC(=O)O` [Example 138 in WO 2013/144098, reference compound], the solubility at 24 h in series [4] was less than 1 µg/mL.
